Assay results: PubChem BioAssay AID1918943 (Molecular Pharmacology Branch, DTP, NCI, 2023)
pIC50: −log10 of the molar value.

Tested on: 855422-203-R-J1-PDC complex spheroid viability
Assay: Anticancer human tumor 855422-203-R-J1-PDC patient-derived bladder carcinoma cell line growth inhibition
Details: for pIC50: curve of first compound; for viability, T/C: stronger effect = lower value; active means viability on the fitted dose curve at most 10% of control; inactive means the rest
Summary of the method: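 Multicellular complex spheroids of tumor cells with human endothelial cells (HUVEC) and mesenchymal stem cells; the LSD1 inhibitor iadademstat was combined with standard-of-care or investigational agents. Top concentration at or near clinical Cmax, half-log dilutions; final DMSO ≤0.25%.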

[1] = second compound 0.1 µM, first compound 0.000949 µM
[2] = second compound 0.1 µM, first compound 0.003 µM
[3] = second compound 0.1 µM, first compound 0.00949 µM
[4] = second compound 0.1 µM, first compound 0.03 µM
[5] = second compound 0.1 µM, first compound 0.0949 µM
[6] = second compound 0.1 µM, first compound 0.3 µM
[7] = second compound 0.316 µM, first compound 0.000949 µM
[8] = second compound 0.316 µM, first compound 0.003 µM
[9] = second compound 0.316 µM, first compound 0.00949 µM
[10] = second compound 0.316 µM, first compound 0.03 µM
[11] = second compound 0.316 µM, first compound 0.0949 µM
[12] = second compound 0.316 µM, first compound 0.3 µM
[13] = second compound 1 µM, first compound 0.000949 µM
[14] = second compound 1 µM, first compound 0.003 µM
[15] = second compound 1 µM, first compound 0.00949 µM
[16] = second compound 1 µM, first compound 0.03 µM
[17] = second compound 1 µM, first compound 0.0949 µM
[18] = second compound 1 µM, first compound 0.3 µM
[19] = second compound 3.16 µM, first compound 0.000949 µM
[20] = second compound 3.16 µM, first compound 0.003 µM
[21] = second compound 3.16 µM, first compound 0.00949 µM
[22] = second compound 3.16 µM, first compound 0.03 µM
[23] = second compound 3.16 µM, first compound 0.0949 µM
[24] = second compound 3.16 µM, first compound 0.3 µM
[25] = second compound 10 µM, first compound 0.000949 µM
[26] = second compound 10 µM, first compound 0.003 µM
[27] = second compound 10 µM, first compound 0.00949 µM
[28] = second compound 10 µM, first compound 0.03 µM
[29] = second compound 10 µM, first compound 0.0949 µM
[30] = second compound 10 µM, first compound 0.3 µM
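Further: drug exposure lasted 7 days starting on day 3 after seeding.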
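Wherever viability, T/C is given: luminescence viability as percent of DMSO vehicle wells = 100%.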

CCc1c2c(nc3ccc(O)cc13)-c1cc3c(c(=O)n1C2)COC(=O)[C@]3(O)CC + NC1CC1c1ccc(-c2cccc(O)c2)cc1
active: viability, T/C [3] 9.58% | viability, T/C [4] 6.75% | viability, T/C [5] 4.82% | viability, T/C [6] 3.56% | viability, T/C [10] 6.65% | viability, T/C [11] 4.88% | viability, T/C [12] 2.78% | viability, T/C [15] 10.2% | viability, T/C [16] 6.49% | viability, T/C [17] 3.41% | viability, T/C [18] 2.05% | viability, T/C [21] 9.86% | viability, T/C [22] 6.91% | viability, T/C [23] 4.7% | viability, T/C [24] 2.44% | viability, T/C [27] 8.31% | viability, T/C [28] 5.99% | viability, T/C [29] 2.54% | viability, T/C [30] 1.14%
> 9.02: pIC50 (second compound 0.1 µM) | pIC50 (second compound 0.316 µM) | pIC50 (second compound 1 µM) | pIC50 (second compound 3.16 µM) | pIC50 (second compound 10 µM)
inactive: viability, T/C [1] 20.8% | viability, T/C [2] 14.2% | viability, T/C [7] 17.1% | viability, T/C [8] 15.1% | viability, T/C [9] 10.9% | viability, T/C [13] 15.7% | viability, T/C [14] 13% | viability, T/C [19] 15.7% | viability, T/C [20] 13.7% | viability, T/C [25] 17.6% | viability, T/C [26] 12.6%

Nc1ccccc1NC(=O)c1ccc(CNC(=O)OCc2cccnc2)cc1 + NC1CC1c1ccc(-c2cccc(O)c2)cc1
5.89: pIC50 (second compound 0.316 µM)
6.00: pIC50 (second compound 3.16 µM)
5.97: pIC50 (second compound 1 µM)
active: viability, T/C (second compound 0.316 µM, first compound 3 µM) 7.62% | viability, T/C (second compound 1 µM, first compound 3 µM) 6.8% | viability, T/C (second compound 3.16 µM, first compound 3 µM) 5.73% | viability, T/C (second compound 10 µM, first compound 3 µM) 2.03%
5.99: pIC50 (second compound 10 µM)
inactive: viability, T/C [3] 90.3% | viability, T/C [4] 91.2% | viability, T/C [5] 98.5% | viability, T/C [6] 97.8% | viability, T/C (second compound 0.1 µM, first compound 0.949 µM) 60.8% | viability, T/C (second compound 0.1 µM, first compound 3 µM) 11.8% | viability, T/C [9] 95.3% | viability, T/C [10] 92.6% | viability, T/C [11] 104% | viability, T/C [12] 96.4% | viability, T/C (second compound 0.316 µM, first compound 0.949 µM) 65.9% | viability, T/C [15] 89.4% | viability, T/C [16] 90.4% | viability, T/C [17] 85.9% | viability, T/C [18] 82.8% | viability, T/C (second compound 1 µM, first compound 0.949 µM) 54.7% | viability, T/C [21] 87.9% | viability, T/C [22] 86.6% | viability, T/C [23] 91% | viability, T/C [24] 90.2% | viability, T/C (second compound 3.16 µM, first compound 0.949 µM) 51.9% | viability, T/C [27] 98.7% | viability, T/C [28] 91.3% | viability, T/C [29] 91.1% | viability, T/C [30] 87.4% | viability, T/C (second compound 10 µM, first compound 0.949 µM) 53.5%
5.91: pIC50 (second compound 0.1 µM)

Nc1ccn(C2OC(CO)C(O)C2(F)F)c(=O)n1 (stereo not given) + NC1CC1c1ccc(-c2cccc(O)c2)cc1
8.55: pIC50 (second compound 0.1 µM)
8.65: pIC50 (second compound 3.16 µM)
8.50: pIC50 (second compound 0.316 µM)
inactive: viability, T/C [1] 84.7% | viability, T/C [2] 46.3% | viability, T/C [3] 33.9% | viability, T/C [4] 25.2% | viability, T/C [5] 22.6% | viability, T/C [6] 18.3% | viability, T/C [7] 86.9% | viability, T/C [8] 49% | viability, T/C [9] 34.2% | viability, T/C [10] 26.7% | viability, T/C [11] 19.9% | viability, T/C [12] 17.1% | viability, T/C [13] 76% | viability, T/C [14] 48.5% | viability, T/C [15] 36% | viability, T/C [16] 25% | viability, T/C [17] 20.4% | viability, T/C [18] 20.6% | viability, T/C [19] 76.8% | viability, T/C [20] 36.9% | viability, T/C [21] 33.3% | viability, T/C [22] 25.1% | viability, T/C [23] 17.8% | viability, T/C [24] 18.8% | viability, T/C [25] 77.4% | viability, T/C [26] 46.4% | viability, T/C [27] 38% | viability, T/C [28] 28% | viability, T/C [29] 23.3% | viability, T/C [30] 18.5%
8.52: pIC50 (second compound 10 µM)
8.53: pIC50 (second compound 1 µM)

O=C(c1cc(Cc2n[nH]c(=O)c3ccccc23)ccc1F)N1CCN(C(=O)C2CC2)CC1 + NC1CC1c1ccc(-c2cccc(O)c2)cc1
< 5.00: pIC50 (second compound 0.1 µM) | pIC50 (second compound 0.316 µM) | pIC50 (second compound 1 µM) | pIC50 (second compound 3.16 µM) | pIC50 (second compound 10 µM)
inactive: viability, T/C (second compound 0.1 µM, first compound 0.0316 µM) 98.9% | viability, T/C (second compound 0.1 µM, first compound 0.1 µM) 99.2% | viability, T/C (second compound 0.1 µM, first compound 0.316 µM) 99.8% | viability, T/C (second compound 0.1 µM, first compound 1 µM) 98% | viability, T/C (second compound 0.1 µM, first compound 3.16 µM) 102% | viability, T/C (second compound 0.1 µM, first compound 10 µM) 84% | viability, T/C (second compound 0.316 µM, first compound 0.0316 µM) 91.1% | viability, T/C (second compound 0.316 µM, first compound 0.1 µM) 87.4% | viability, T/C (second compound 0.316 µM, first compound 0.316 µM) 97.2% | viability, T/C (second compound 0.316 µM, first compound 1 µM) 98.4% | viability, T/C (second compound 0.316 µM, first compound 3.16 µM) 101% | viability, T/C (second compound 0.316 µM, first compound 10 µM) 81.4% | viability, T/C (second compound 1 µM, first compound 0.0316 µM) 90.1% | viability, T/C (second compound 1 µM, first compound 0.1 µM) 87.7% | viability, T/C (second compound 1 µM, first compound 0.316 µM) 89.3% | viability, T/C (second compound 1 µM, first compound 1 µM) 95.5% | viability, T/C (second compound 1 µM, first compound 3.16 µM) 90.3% | viability, T/C (second compound 1 µM, first compound 10 µM) 80.8% | viability, T/C (second compound 3.16 µM, first compound 0.0316 µM) 94.4% | viability, T/C (second compound 3.16 µM, first compound 0.1 µM) 89.7% | viability, T/C (second compound 3.16 µM, first compound 0.316 µM) 92.1% | viability, T/C (second compound 3.16 µM, first compound 1 µM) 91.3% | viability, T/C (second compound 3.16 µM, first compound 3.16 µM) 93.6% | viability, T/C (second compound 3.16 µM, first compound 10 µM) 70.1% | viability, T/C (second compound 10 µM, first compound 0.0316 µM) 92.2% | viability, T/C (second compound 10 µM, first compound 0.1 µM) 89.4% | viability, T/C (second compound 10 µM, first compound 0.316 µM) 85.1% | viability, T/C (second compound 10 µM, first compound 1 µM) 89.6% | viability, T/C (second compound 10 µM, first compound 3.16 µM) 83.3% | viability, T/C (second compound 10 µM, first compound 10 µM) 55.5%
